Patent US5859037A, “Sulfonylurea-glitazone combinations for diabetes” (Warner-Lambert Company, priority 1997, dated 1999)

Tested on: lipid parameters (markers of lipid metabolism)
Assay: Fasting serum lipid profile in 52-week clinical study
Format: in vivo, patients
Details: for LDL Cholesterol, Change From Baseline, Median / LP(a), Change From Baseline, Mean / Total Cholesterol, Change From Baseline, Mean / Total Cholesterol, Change From Baseline, Median / Triglycerides, Change From Baseline, Mean / Triglycerides, Change From Baseline, Median / VLDL Cholesterol, Change From Baseline, Mean / VLDL Cholesterol, Change From Baseline, Median / Apo A1, Change From Baseline, Mean / Apo B, Change From Baseline, Mean / Free Fatty Acids, Change From Baseline, Mean / Free Fatty Acids, Change From Baseline, Median / HDL Cholesterol, Change From Baseline, Mean / HDL Cholesterol, Change From Baseline, Median / LDL Cholesterol, Change From Baseline, Mean: ITT, Week 52; for LDL adjusted mean increase, difference from glyburide / total cholesterol adjusted mean increase, difference from glyburide: Month 12, p<0.05
Protocol: After an initial screening visit, patients meeting the inclusion criteria entered a 4-week baseline phase (unblinded) in which they received 12 mg micronized glyburide (6 mg BID).
Secondary efficacy parameters included markers of glycemic homeostasis (insulin and C-peptide) and markers of lipid metabolism (total cholesterol, total triglycerides, HDL, VLDL, LDL (measured), free fatty acids, Lp(a), Apo A1, and Apo B).
Efficacy analysis was performed on 2 patient populations, intent-to-treat and completers. […] Patients withdrawing from the study before Week 52 were included in the analysis using the LOCF procedure; the last measurement on treatment was substituted for the missing Week 52 measurement. The intent-to-treat patient sample was the primary sample for assessing efficacy. Completers comprised patients in the intent-to-treat sample who completed Week 52.
Summary statistics for baseline, follow-up (post-randomization), and change from baseline in secondary efficacy parameters were computed by treatment group and visit. For each patient, the baseline measurements for insulin, C-peptide, blood pressure, total cholesterol, triglycerides, LDL, HDL, VLDL, and free fatty acids were defined as the measurement at Week 0. In order to reduce variability, the baseline Apo A, Apo B, and Lp(a) levels were defined as the average of the respective measurements at Weeks -1 and 1. Similarly, the end-of-treatment Apo A, Apo B, and Lp(a) measurements were defined as the average of the respective measurements at Weeks 48 and 52. Averages from Weeks 20 and 24 were not carried forward for these special lipid parameters.
Fasting serum lipid profiles were determined at baseline and periodically through Week 52. Apo A1, Apo B, and Lp(a) were determined only at baseline, Month 6, and Month 12 as part of a special laboratory panel.

[1] = troglitazone 200 mg, or 200 mg/12 mg in combination
[2] = troglitazone 400 mg, or 400 mg/12 mg in combination
[3] = troglitazone 600 mg, or 600 mg/12 mg in combination

Cc1c(C)c2c(c(C)c1O)CCC(C)(COc1ccc(CC3SC(=O)NC3=O)cc1)O2 (centres unmarked) [Troglitazone]
LDL Cholesterol, Change From Baseline, Median [1]: 20.50 mg/dL
LP(a), Change From Baseline, Mean [1]: 8.8 mg/dL
Total Cholesterol, Change From Baseline, Mean [1]: 19.96 mg/dL
Total Cholesterol, Change From Baseline, Median [1]: 21.00 mg/dL
Triglycerides, Change From Baseline, Mean [1]: -35.77 mg/dL
Triglycerides, Change From Baseline, Median [1]: 3.50 mg/dL
VLDL Cholesterol, Change From Baseline, Mean [1]: 3.54 mg/dL
VLDL Cholesterol, Change From Baseline, Median [1]: 3.50 mg/dL
Apo A1, Change From Baseline, Mean [2]: -1.5 mg/dL
Apo B, Change From Baseline, Mean [2]: 3.4 mg/dL
Free Fatty Acids, Change From Baseline, Mean [2]: -0.17 mEq/L
Free Fatty Acids, Change From Baseline, Median [2]: -0.12 mEq/L
HDL Cholesterol, Change From Baseline, Mean [2]: 2.99 mg/dL
HDL Cholesterol, Change From Baseline, Median [2]: 3.00 mg/dL
LDL Cholesterol, Change From Baseline, Mean [2]: 12.09 mg/dL
LDL Cholesterol, Change From Baseline, Median [2]: 11.00 mg/dL
LP(a), Change From Baseline, Mean [2]: 10.0 mg/dL
Total Cholesterol, Change From Baseline, Mean [2]: 24.78 mg/dL
Total Cholesterol, Change From Baseline, Median [2]: 20.00 mg/dL
Triglycerides, Change From Baseline, Mean [2]: -3.86 mg/dL
Triglycerides, Change From Baseline, Median [2]: -2.00 mg/dL
VLDL Cholesterol, Change From Baseline, Mean [2]: 8.48 mg/dL
VLDL Cholesterol, Change From Baseline, Median [2]: 3.00 mg/dL
Apo A1, Change From Baseline, Mean [3]: -1.9 mg/dL
Apo B, Change From Baseline, Mean [3]: 3.1 mg/dL
Free Fatty Acids, Change From Baseline, Mean [3]: -0.19 mEq/L
Free Fatty Acids, Change From Baseline, Median [3]: -0.11 mEq/L
HDL Cholesterol, Change From Baseline, Mean [3]: 4.53 mg/dL
HDL Cholesterol, Change From Baseline, Median [3]: 3.00 mg/dL
LDL Cholesterol, Change From Baseline, Mean [3]: 16.21 mg/dL
LDL Cholesterol, Change From Baseline, Median [3]: 15.00 mg/dL
LP(a), Change From Baseline, Mean [3]: 9.1 mg/dL
Total Cholesterol, Change From Baseline, Mean [3]: 25.88 mg/dL
Total Cholesterol, Change From Baseline, Median [3]: 20.50 mg/dL
Triglycerides, Change From Baseline, Mean [3]: -9.59 mg/dL
Triglycerides, Change From Baseline, Median [3]: -24.00 mg/dL
VLDL Cholesterol, Change From Baseline, Mean [3]: -0.36 mg/dL
VLDL Cholesterol, Change From Baseline, Median [3]: -3.00 mg/dL
LDL adjusted mean increase, difference from glyburide (200 mg): 23 mg/dL
total cholesterol adjusted mean increase, difference from glyburide (200 mg): 25 mg/dL
total cholesterol adjusted mean increase, difference from glyburide (400 mg): 26 mg/dL
LDL adjusted mean increase, difference from glyburide (600 mg): 19 mg/dL
total cholesterol adjusted mean increase, difference from glyburide (600 mg): 28 mg/dL
atherogenic risk / lipid profile (result in words) (mono- or combination therapy): do not negatively impact atherogenic risk
